Data set [1] concerns Jurkat human leukaemia cell line (JLC). The experiment in a line: Cytotoxicity, Jurkat leukaemia cell line JLC. Format: cell-based. Particulars: concentration required to give 50% cell kill. As to the method: (§1) The cytotoxicity of the compounds described herein was also measured using the Jurkat human leukaemia cell line (JLC) and also the amsacrine-resistant Jurkat human leukaemia cell line (JLA) and the doxorubicin-resistant Jurkat human leukaemia cell line (JLD). The cytotoxicity, as measured by the IC50 (concentration required to give 50% cell kill) in the JLA or JLD cell line divided by the cytotoxicity in the JLC cell line gives an indication of the degree to which a compound may be affected by atypical drug resistance and is termed the resistance factor (Rf) of the compound. The method used has been described previously (Finlay et al, Eur J. Cancer 32A, 708–714, 1996). Compounds were active in the range 1 nM to 5 μM.

Data set [2] has as its system amsacrine-resistant Jurkat human leukaemia cell line (JLA). The experiment in a line: Cytotoxicity, amsacrine-resistant Jurkat cell line JLA. Format: cell-based. As to conditions: for pIC50: concentration required to give 50% cell kill; for Rf (JLA/JLC): IC50 in JLA divided by IC50 in JLC, atypical drug resistance. Here is the method:
as §1

The subject of data set [3] is doxorubicin-resistant Jurkat human leukaemia cell line (JLD). The experiment in a line: Cytotoxicity, doxorubicin-resistant Jurkat cell line JLD. Format: cell-based. Particulars: for pIC50: concentration required to give 50% cell kill; for Rf (JLD/JLC): IC50 in JLD divided by IC50 in JLC, atypical drug resistance. As to the method:
as §1

The subject of data set [4] is H69 parental (H69/P) human small cell lung carcinoma cell line. The data set is described as follows: Cytotoxicity, H69 parental cell line (AlamarBlue). Format: cell-based. Particulars: concentration required to give 50% cell kill, 5–6 days incubation. As to the method: (§2) The cytotoxicity of compounds of formula (I) was measured using the H69 parental (H69/P) human small cell lung carcinoma cell line and the drug resistant human small cell lung carcinoma cell line H69/LX4 which overexpresses P-glycoprotein (Pgp). The cytotoxicity, as measured by the IC50 (concentration required to give 50% cell kill) in the H69/LX4 cell line divided by the cytotoxicity in the H69/P cell line gives an indication of the degree to which a compound is affected by Pgp-dependent MDR and is termed the resistance factor (Rf) of the compound.
(§3) H69/P and H69/LX4 cells were pipetted into 96-well tissue culture plates and then allowed to incubate at 37° C. for 4 h. […] The plates were incubated for 5–6 days before adding AlamarBlue to each well and returning the plates to the incubator for 5–8 h to allow colour development. The cell numbers in the plates at the end of this period were directly proportional to the absorbance measured at a wavelength of 570 nm (reference wavelength 600 nm).
Background: Resazurin is reduced to fluorescent resorufin, in cell work by metabolically active cells.

For data set [5], the system named is drug resistant human small cell lung carcinoma cell line H69/LX4 which overexpresses P-glycoprotein (Pgp). The experiment in a line: Cytotoxicity, drug resistant H69/LX4 cell line (AlamarBlue). The class given is cell-based. As to conditions: for pIC50: concentration required to give 50% cell kill, 5–6 days incubation; for Rf (resistance factor): IC50 in H69/LX4 divided by IC50 in H69/P, Pgp-dependent MDR. Here is the method:
as §2, §3

The subject of data set [6] is COR-L23 parental (COR-L23/P) human non-small cell lung carcinoma cell line. The data set is described as follows: Cytotoxicity, COR-L23 parental cell line (SRB assay). The class given is cell-based. As to conditions: concentration required to give 50% cell kill, 5–6 days incubation. As to the method:
(§4) The cytotoxicity of the compounds described herein was also measured using the COR-L23 parental (COR-L23/P) human non-small cell lung carcinoma cell line and also the drug resistant human non-small cell lung carcinoma cell line COR-L23/R which overexpresses multidrug resistance associated protein (MRP). The cytotoxicity, as measured by the IC50 (concentration required to give 50% cell kill) in the L23/R cell line divided by the cytotoxicity in the L23/P cell line gives an indication of the degree to which a compound may be affected by MRP-dependant MDR and is termed the resistance factor (Rf) of the compound.
(§5) L23/P and L23/R cells were pipetted into 96-well tissue culture plates and then allowed to incubate at 37° C. for 4 h. […] The plates were incubated for 5–6 days before proliferation was assessed using the sulphurhodamine B (SRB) assay as described by Skehan et al, J Natl Cancer Inst 1990, 82, pp 1107–1112.

Data set [7] is described as follows: Cytotoxicity, drug resistant COR-L23/R cell line (SRB assay). Format: cell-based, human. As to conditions: Homo sapiens, COR-L23/R; concentration required to give 50% cell kill; 5–6 days incubation. Here is the method: as §4, §5
For orientation: Sulforhodamine B stains cellular protein and so reports cell mass.

In data set [8] the test system is drug resistant human non-small cell lung carcinoma cell line COR-L23/R which overexpresses multidrug resistance associated protein (MRP). The description is as above. Format: cell-based. Particulars: for Rf (resistance factor): IC50 in L23/R divided by IC50 in L23/P, MRP-dependant MDR. As to the method: as §4, §5
The next data set has as its target T1, topoisomerase I (Homo sapiens, UniProt P11387).
T1 sequence (P11387 1-765): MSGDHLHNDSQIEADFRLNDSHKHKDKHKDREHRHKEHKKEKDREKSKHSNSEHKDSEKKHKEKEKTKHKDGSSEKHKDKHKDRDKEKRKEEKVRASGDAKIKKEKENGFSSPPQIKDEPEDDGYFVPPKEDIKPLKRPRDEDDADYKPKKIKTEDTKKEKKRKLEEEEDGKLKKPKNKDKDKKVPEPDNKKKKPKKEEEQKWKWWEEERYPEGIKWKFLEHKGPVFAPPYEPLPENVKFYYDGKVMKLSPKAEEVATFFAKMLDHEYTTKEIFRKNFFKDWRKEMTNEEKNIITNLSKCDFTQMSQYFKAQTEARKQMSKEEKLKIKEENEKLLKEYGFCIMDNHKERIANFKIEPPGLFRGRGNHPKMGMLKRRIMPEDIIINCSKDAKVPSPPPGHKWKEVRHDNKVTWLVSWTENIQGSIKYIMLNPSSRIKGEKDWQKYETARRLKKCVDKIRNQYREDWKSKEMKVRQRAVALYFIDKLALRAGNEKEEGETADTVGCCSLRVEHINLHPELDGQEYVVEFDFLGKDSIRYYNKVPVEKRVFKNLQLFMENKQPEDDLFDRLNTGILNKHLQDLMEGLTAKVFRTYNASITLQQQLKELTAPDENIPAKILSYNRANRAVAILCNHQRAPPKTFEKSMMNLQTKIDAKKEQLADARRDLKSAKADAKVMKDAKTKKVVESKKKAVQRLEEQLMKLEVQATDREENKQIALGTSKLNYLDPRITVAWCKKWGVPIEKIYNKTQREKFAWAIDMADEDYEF
The experiment in a line: Stabilisation of cleavable complexes, topoisomerase I. The class given is biochemical. As to conditions: range where an increase in cleavable complexes was observed relative to controls in the absence of drug. The source says:
(§6) Compounds were also studied for their ability to stabilize cleavable complexes in the presence of either topoisomerase I or II essentially as described previously (Finlay et al, Eur J. Cancer 32A, 708–714, 1996). Presence of cleavable complexes was indicated by an increase in the number and intensity of bands observed after electrophoresis and autoradiography. The results are expressed as the effective concentration range where an increase in cleavable complexes was observed relative to controls in the absence of drug.

A further data set concerns topoisomerase II. The experiment in a line: Stabilisation of cleavable complexes, topoisomerase II. Format: biochemical. As to conditions: range where an increase in cleavable complexes was observed relative to controls in the absence of drug.
Source text: as §6

pIC50: −log10 of the molar value.

One may read the pIC50 as −log10 of the IC50, conventionally taken in molar units.

In the case of `CN(C)CCNC(=O)c1cccc2nc3ccc4cc(O)ccc4c3nc12` [Compound 2, 3-Hydroxy-benzo[a]phenazine-11-carboxylic acid (2-dimethylamino-ethyl)-amide], the pIC50 was 7.43 in data set [1] (Homo sapiens, Jurkat); 7.02 in data set [2] (Homo sapiens, Jurkat); 6.97 in data set [3] (Homo sapiens, Jurkat). Moreover, the “Rf (JLA/JLC)” value in [2] was determined as 2.6. Moreover, the “Rf (JLD/JLC)” value in data set [3] is reported as 2.9.
As to `CN(C)CCNC(=O)c1cccc2nc3ccc4c(OCC#N)cccc4c3nc12` [Compound 11, 4-Cyanomethoxy-benzo[a]phenazine-11-carboxylic acid (2-dimethylamino-ethyl)-amide], the negative logarithm of the IC50 (pIC50) was 7.55 in [4] (Homo sapiens); 7.62 in data set [5] (Homo sapiens); 8.21 in [6] (Homo sapiens, COR-L23); 7.75 in data set [7]. In addition, the entries for the “Rf (resistance factor)” value in data set [5] and in data set [8] were 0.9 and 2.9, respectively.
Regarding `COc1cccc2c1ccc1nc3cccc(C(=O)NC(C)CN(C)C)c3nc12` (stereo not drawn) [Compound 35, 4-Methoxy-benzo[a]phenazine-11-carboxylic acid (2-dimethylamino-1-methyl-ethyl)-amide], the negative-log IC50 (pIC50) was 7.55 in [1] (Homo sapiens, Jurkat); 7.72 in data set [2] (Homo sapiens, Jurkat); 7.60 in data set [3] (Homo sapiens, Jurkat). Further, in [2], the “Rf (JLA/JLC)” value came out at 0.7. Besides, in data set [3], the “Rf (JLD/JLC)” value worked out at 0.9. Also, the “Effective concentration range, Topoisomerase I” value at topoisomerase I lay within 0.03 to 1.0 µM. Moreover, the “Effective concentration range, Topoisomerase II” value in the data set with topoisomerase II was in the range of 0.03 to 1.0 µM.
On to `CN(C)CCNC(=O)c1c(O)ccc2nc3ccc4c(O)cccc4c3nc12` [Compound 68, 4,10-Dihydroxy-benzo[a]phenazine-11-carboxylic acid (2-dimethylamino-ethyl)-amide], for which the pIC50 in data set [4] (Homo sapiens) was 7.72; in data set [5] (Homo sapiens), 7.60; in data set [6] (Homo sapiens, COR-L23), 7.88; in data set [7], 7.35. For the same molecule, the “Rf (resistance factor)” value in [5] amounted to 1.3; in data set [8], 3.4.
`COc1cccc2c1ccc1nc3cccc(C(=O)NC(CO)CN(C)C)c3nc12` (stereo not drawn) [Compound 75, 4-Methoxy-benzo[a]phenazine-11-carboxylic acid (2-dimethylamino-1-hydroxymethyl-ethyl)-amide]: the pIC50 in data set [4] (Homo sapiens) is 7.64; in data set [5] (Homo sapiens), 7.55; in data set [6] (Homo sapiens, COR-L23) it was 7.89; in data set [7] it was 7.76. Besides, the “Rf (resistance factor)” value in [5] was 1.2; in [8], 1.3.
With `COc1cccc2c1ccc1nc3cccc(C(=O)N[C@H](CO)CN(C)C)c3nc12` [Compound 81, 4-Methoxy-benzo[a]phenazine-11-carboxylic acid (2-dimethylamino-1-(S)-hydroxymethyl-ethyl)-amide], the negative-log IC50 (pIC50) in data set [4] (Homo sapiens) was 7.70; in data set [5] (Homo sapiens), 7.60; in [6] (Homo sapiens, COR-L23), 8.40; in data set [7] it was 7.91; in [1] (Homo sapiens, Jurkat), 8.06; in [2] (Homo sapiens, Jurkat), 8.04. Moreover, the pIC50 in data set [3] (Homo sapiens, Jurkat) was 8.03. Also, the “Rf (resistance factor)” value in data set [5] is reported as 1.2; in data set [8], 3.1. The “Rf (JLA/JLC)” value in [2] is given as 1.1. The “Rf (JLD/JLC)” value in [3] was 1.1.
`COc1cccc2c1ccc1nc3cccc(C(=O)NC(C)(CCO)N(C)C)c3nc12` (stereo not drawn) [Compound 87, 4-Methoxy-benzo[a]phenazine-11-carboxylic acid [1-dimethylamino-1-(2-hydroxyethyl)]-ethylamide]: the pIC50 in [1] is 7.80. For the same molecule, in [2], the “Rf (JLA/JLC)” value is reported as 1.0 and the pIC50 was 7.80. In data set [3], the “Rf (JLD/JLC)” value is listed as 1.0 and the negative logarithm of the IC50 (pIC50) is 7.77.
Turning to `COc1cc(C(=O)NCCN(C)C)c2nc3c(ccc4c(OC)cccc43)nc2c1` [Compound 94, 4,9-Dimethoxy-benzo[a]phenazine-11-carboxylic acid (2-dimethylamino-ethyl)-amide], the negative logarithm of the IC50 (pIC50) in data set [4] (Homo sapiens) was 7.72; in data set [5] (Homo sapiens), 7.60; in data set [6] (Homo sapiens, COR-L23), 8.24; in data set [7] it was 8.42; in [1] (Homo sapiens, Jurkat), 8.04; in data set [2] (Homo sapiens, Jurkat), 7.80. In addition, in data set [3] (Homo sapiens, Jurkat), the negative logarithm of the IC50 (pIC50) was 7.85. Moreover, the figures for the “Rf (resistance factor)” value in data set [5] and in data set [8] were 1.3 and 0.7, respectively. Further, the “Rf (JLA/JLC)” value in data set [2] is listed as 1.8. For the same molecule, in [3], the “Rf (JLD/JLC)” value came out at 1.6.
`COc1cccc2c1ccc1nc3cccc(C(=O)N[C@@H](CN(C)C)C(C)C)c3nc12` [Compound 98, (R)-4-Methoxy-benzo[a]phenazine-11-carboxylic acid(1-dimethylaminomethyl-2-methyl-propyl)-amide]: the negative-log IC50 (pIC50) in data set [4] is 7.68; in data set [5] it was 7.70; in data set [6], 8.02; in [8] (concentration required to give 50% cell kill, 5–6 days incubation) it was 8.06; in [1], 8.07; in data set [2], 7.74. The same molecule showed a negative logarithm of the IC50 (pIC50) in [3] of 7.85. For the same molecule, the “Rf (resistance factor)” value in [5] worked out at 1; in data set [8], 0.9. Also, the “Rf (JLA/JLC)” value in data set [2] was 2.1. The “Rf (JLD/JLC)” value in data set [3] is recorded as 1.6.
As to `COc1cccc2c1C(=O)c1c(O)c3c(c(O)c1C2=O)C[C@@](O)(C(=O)CO)C[C@@H]3O[C@H]1C[C@H](N)[C@H](O)[C@H](C)O1` [Doxorubicin, reference compound], the pIC50 in data set [5] (Homo sapiens) was 5.43; in [1] (Homo sapiens, Jurkat) it was 8.15. The “Rf (resistance factor)” value in [5] turned out to be 135; in data set [8] it was 16.1. Besides, the “Rf (JLA/JLC)” value in data set [2] worked out at 3.7.
Regarding `CC[C@@]1(O)C(=O)OCc2c1cc1n(c2=O)Cc2cc3c(CN(C)C)c(O)ccc3nc2-1` [Topotecan, reference compound], the “Rf (resistance factor)” value in data set [5] is given as 3.9; in [8] it was 1.5.

The values are drawn from US7132419B2, “Pharmaceutical compounds” (Xenova Limited, priority 2000, dated 2006).
